This assay deals with E. coli. In words: MALDI-TOF (MALDI Biotyper) growth-based resistance/susceptibility determination of the test cell substrate in CTX-containing Mueller-Hinton nutrient medium. Further details: species or system Escherichia coli. To be noted: CTX 1 μg/mL; for logarithm of the similarity measure (log(score)), best match of second preparation: 4 h incubation. An excerpt:
As proof of principle for the feasibility of the disclosed procedure, a cefotaxime-susceptible E. coli was selected as the test cell substrate and applied to the determination of a characteristic of the microorganism under investigation using a MALDI Biotyper® system. For this purpose, the resistance/susceptibility of the test cell substrate to a growth-influencing substance, in this example the antibiotic cefotaxime (CTX), was investigated using a prior art method and the method disclosed herein.
The test cell substrate was incubated in nutrient medium, Mueller-Hinton nutrient medium (first preparation—FIG. 2), and the same nutrient medium containing CTX at a concentration of 1 μg/mL (second preparation—FIGS. 3 and 4). The first preparation served as a growth control. The second preparation was used to determine the resistance/susceptibility of the test cell substrate to CTX.
To create the preparations, a large volume (stock suspension) of a cell suspension, here about 12 mL, otherwise regularly 10 to 50 mL, of the test cell substrate was prepared in Mueller-Hinton nutrient medium, a liquid nutrient medium. The concentration of the test cell substrate in the stock suspension was determined densitometrically in order to use an appropriate and equal amount of the test cell substrate for the first and second preparations. A small volume was taken from this stock suspension for the first preparation and transferred to a well of a microtiter plate. Since the first preparation was designed as a growth control, no antibiotic was present in the well. Simultaneously, for a second preparation, the same volume of stock suspension was removed and transferred to another well of the microtiter plate, thereby dissolving the antibiotic CTX, which was present in dried form in the well of the second preparation, for a final concentration of 1 μg/mL. The microtiter plate was then agitated to ensure complete dissolution and homogeneous distribution of the antibiotic in the cavity of the second preparation. Further preparations in the form of a concentration-dilution series for determining of a minimum inhibitory concentration (MIC) of the antibiotic CTX is easy to generate by selectively dissolving the dried CTX in additional wells of the microtiter plate. For example, a CTX concentration of 0.5 μg/mL can be set in the Mueller-Hinton nutrient medium in a third well for another preparation, and a CTX concentration of 2 μg/mL can be set in a fourth well for yet another preparation. Thus, the dilution series can comprise the CTX concentrations 0.5, 1 and 2 μg/mL, while additional dilution steps, e.g., 0.25 or 4 μg/mL can be included. Such a dilution series can also be performed in dilution steps of different sizes of the CTX concentration. […]

For the compound `CO/N=C(\C(=O)N[C@@H]1C(=O)N2C(C(=O)O)=C(COC(C)=O)CS[C@H]12)c1csc(N)n1` [CTX, cefotaxime], the “logarithm of the similarity measure (log(score)), best match of second preparation” value is given as 1.83 (compared with entire reference library (prior art method), best match Citrobacter farmeri, >=1.7 read as growth/resistance) and 1.13 (compared with first sub-library (five best E. coli reference datasets), <1.7 read as no growth/susceptibility). For the same compound, the “property resistance or susceptibility to CTX” value is, setting by setting: (compared with entire reference library (prior art method), patent calls this result false-positive) “CTX-resistant”; (compared with first sub-library (method of the invention)) “CTX-susceptible”.
